Data as given in patent US8952024B2, “Herbicidal pyrimidone derivatives” (E I du Pont de Nemours and Company, priority 2009, dated 2015).

Key:
Format in all cases: in vivo
[1] = system: Surinam grass (Brachiaria decumbens); experiment: Test B pre-/postemergence plant response
Method in brief: (§1)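 Visual injury, 0–100 scale (100 = complete control), rated against controls after 13 to 15 days in greenhouse. Pre-emergence: seeds in loam/sand soil, treated at planting. Post-emergence: 1- to 4-leaf plants (2 to 18 cm) in peat/vermiculite medium. Compounds formulated in non-phytotoxic solvent with surfactant.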

[2] = system: blackgrass (Alopecurus myosuroides); experiment: Test B pre-/postemergence plant response
Method in brief: as §1

[3] = system: cocklebur (Xanthium strumarium); experiment: Test B pre-/postemergence plant response
Method in brief: as §1

[4] = system: kochia (Kochia scoparia); experiment: Test B pre-/postemergence plant response
Method in brief: as §1

[5] = system: lambsquarters (Chenopodium album); experiment: Test B pre-/postemergence plant response
Method in brief: as §1

[6] = system: pigweed (Amaranthus retroflexus); experiment: Test B pre-/postemergence plant response
Method in brief: as §1

[7] = system: soybean (Glycine max); experiment: Test B pre-/postemergence plant response
Method in brief: as §1

[8] = system: velvetleaf (Abutilon theophrasti); experiment: Test B pre-/postemergence plant response
Method in brief: as §1

[9] = system: wheat (Triticum aestivum); experiment: Test B pre-/postemergence plant response
Method in brief: as §1

[10] = system: wild oat (Avena fatua); experiment: Test B pre-/postemergence plant response
Method in brief: as §1

[11] = system: canarygrass (Phalaris minor); experiment: Test B postemergence plant response
Method in brief: (§2)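 Visual ratings from 0 (no effect) to 100 (complete control), made against controls 13–15 days after treatment, kept in a greenhouse. Compounds were applied postemergence to potted plants at the 1- to 4-leaf stage (2–18 cm).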

[12] = system: chickweed (Stellaria media); experiment: Test B postemergence plant response
Method in brief: as §2

[13] = system: windgrass (Apera spica-venti); experiment: Test B postemergence plant response
Method in brief: as §2

[14] = 31 g ai/ha, postemergence, scale 0 to 100, 0 is no effect, 100 is complete control
[15] = 62 g ai/ha, postemergence, 0 is no effect, 100 is complete control, 13 to 15 days
[16] = Postemergence, 125 g ai/ha, visual rating after 13 to 15 days, scale 0 (no effect) to 100 (complete control)
[17] = Postemergence, 250 g ai/ha, scale 0 to 100 (0 no effect, 100 complete control)

With `Cc1ccccc1-c1ncc(C(=O)C2=C(O)CCCC2=O)c(=O)n1-c1ccccc1` [Compound 82] the “Plant response rating, Surinam Grass” value [1, 14] was 65, the “Surinam Grass plant response rating (0 to 100 scale)” value [1, 15] was 65 and the “Plant response rating, Surinam Grass” value [1, 16] was 75. For the same compound, the “Plant response rating, Surinam Grass” value [1, 17] was 80, the “Plant response rating, Blackgrass” value [2, 14] was 0 and the “Blackgrass plant response rating (0 to 100 scale)” value [2, 15] was 0. For the same compound, the “Plant response rating, Blackgrass” value [2, 16] was 5, the “Plant response rating, Blackgrass” value [2, 17] was 15 and the “Plant response rating, Cocklebur” value [3, 14] was 85. The “Cocklebur plant response rating (0 to 100 scale)” value [3, 15] was 90, the “Plant response rating, Cocklebur” value [3, 16] was 95 and the “Plant response rating, Cocklebur” value [3, 17] was 100. For the same compound, the “Plant response rating, Kochia” value [4, 14] was 10, the “Kochia plant response rating (0 to 100 scale)” value [4, 15] was 60 and the “Plant response rating, Kochia” value [4, 16] was 65. For the same compound, the “Plant response rating, Kochia” value [4, 17] was 75, the “Plant response rating, Lambsquarters” value [5, 14] was 80 and the “Lambsquarters plant response rating (0 to 100 scale)” value [5, 15] was 95. For the same compound, the “Plant response rating, Lambsquarters” value [5, 16] was 100, the “Plant response rating, Lambsquarters” value [5, 17] was 100 and the “Plant response rating, Pigweed” value [6, 14] was 75. The “Pigweed plant response rating (0 to 100 scale)” value [6, 15] was 98, the “Plant response rating, Pigweed” value [6, 16] was 100 and the “Plant response rating, Pigweed” value [6, 17] was 100. The “Plant response rating, Soybean” value [7, 14] was 75, the “Soybean plant response rating (0 to 100 scale)” value [7, 15] was 90 and the “Plant response rating, Soybean” value [7, 16] was 95. The “Plant response rating, Soybean” value [7, 17] was 98, the “Plant response rating, Velvetleaf” value [8, 14] was 85 and the “Velvetleaf plant response rating (0 to 100 scale)” value [8, 15] was 90. For the same compound, the “Plant response rating, Velvetleaf” value [8, 16] was 90, the “Plant response rating, Velvetleaf” value [8, 17] was 95 and the “Plant response rating, Wheat” value [9, 14] was 0. The “Wheat plant response rating (0 to 100 scale)” value [9, 15] was 0, the “Plant response rating, Wheat” value [9, 16] was 0 and the “Plant response rating, Wheat” value [9, 17] was 5. For the same compound, the “Plant response rating, Oat, Wild” value [10, 14] was 0, the “Oat, Wild plant response rating (0 to 100 scale)” value [10, 15] was 0 and the “Plant response rating, Oat, Wild” value [10, 16] was 5. The “Plant response rating, Oat, Wild” value [10, 17] was 10, the “Plant response rating, Canarygrass” value [11, 14] was 0 and the “Canarygrass plant response rating (0 to 100 scale)” value [11, 15] was 0. For the same compound, the “Plant response rating, Canarygrass” value [11, 16] was 15, the “Plant response rating, Canarygrass” value [11, 17] was 35 and the “Plant response rating, Chickweed” value [12, 14] was 90. The “Chickweed plant response rating (0 to 100 scale)” value [12, 15] was 90, the “Plant response rating, Chickweed” value [12, 16] was 98 and the “Plant response rating, Chickweed” value [12, 17] was 100. For the same compound, the “Plant response rating, Windgrass” value [13, 14] was 5, the “Windgrass plant response rating (0 to 100 scale)” value [13, 15] was 5 and the “Plant response rating, Windgrass” value [13, 16] was 20. The “Plant response rating, Windgrass” value [13, 17] was 50.
